Measured values published in patent EP0461827B1, “Hair restorer” (KABUSHIKI KAISHA HAYASHIBARA SEIBUTSU KAGAKU KENKYUJO, priority 1990, dated 1991).

Experiments:
rabbits = assay: Hair regeneration on depilated dorsum of rabbits, lotion applied once daily; format: in vivo; conditions: 1% in 50% aqueous ethanol with 2% propyleneglycol, pH 6.7, 1ml once every day, difference to untreated area; for Mean remainder of hair length (mm) 10th (day): 10th day after application; for Mean remainder of hair length (mm) 20th (day): 20th day after application; for Mean remainder of hair length (mm) 30th (day): 30th day after application
Description: Either of an α-glycosyl-L-ascorbic acid or an α-glycosyl bioflavonoid prepared by the method in Example of Preparation 1-8 was dissolved to give a concentration of 1% in a 50% aqueous ethanol solution containing 2% propyleneglycol, and the mixture was adjusted to pH 6.7 by the addition of 6N sodium hydroxide to obtain a solution in hair lotion form. As control, a solution in hair lotion form was prepared similarly as above, except that α-glycosyl-L-ascorbic acid and α-glycosyl bioflavonoid were replaced with either of intact L-ascorbic acid, bioflavonoid and refined water.
The dorsum surgace of rabbits was sectioned into four areas, 5cm^2 each, i.e. two areas near at head side and two areas near at tail side which were respectively bisymmetrical about the vertebral columns of the rabbits, and the four areas were depilated by applying thereto silver cream (a depilatory agent) and subjecting them to brief standing. The depilated areas were first sufficiently washed with water, then the depilated areas of the right area near at head side, the left area near at head side, and the right area near at tail side were respectively applied once every day by using a paintbrush with 1ml of the test solution, 1ml of the control solution containing refined water, and 1ml of the control solution containing L-ascorbic acid or bioflavonoid. Furthermore, the left area near at tail side was untreated.
The application of each solution was started on the second day after the depilation, and the newly regenerated hairs were depilated to count on the 10th, 20th and 30th days after the application. The length of 10 coarse hairs regenerated in each area was measured with a micromanipulator, and expressed by the mean remainder of hair length (mm) between the hair length in the area which had been applied with a sample solution and that in the area which had been untreated.
In addition, it has been known that the growth rates of hairs in the bisymmetrical dorsum surfaces about the vertebral column of a rabbit is in the same level, and those in both sexes are also in the same level.

[1] = system: volunteers with alopecias; assay: 3-month clinical test of a hair restorer lotion in volunteers with alopecias; format: in vivo, human; conditions: for Therapeutic efficacy (Number of volunteers) Recovery / Therapeutic efficacy (Number of volunteers) Moderate recovery / Therapeutic efficacy (Number of volunteers) Not effected / Therapeutic efficacy (Number of volunteers) Unfavorable: 3-month, lotion with 1.0 part of ingredient, 3 times a day; for Therapeutic efficacy (Number of volunteers) Recovery: hair newly regenerated, apparently free from alopecia; for Therapeutic efficacy (Number of volunteers) Moderate recovery: moderate hair regeneration, no recurrence of alopecia; for Therapeutic efficacy (Number of volunteers) Not effected: no regeneration of hair; for Therapeutic efficacy (Number of volunteers) Unfavorable: side effect or acceleration of alopecia found; for cure rate (%): percentage of volunteers with recovery and moderate recovery against total number of each group
Description: Based on the results in Experiment 1, 20 randomly chosen volunteers with alopecias (10 men and 10 women) as the recipient received 3-month clinical test. The volunteers were 15-66 years old.
The symptom of the volunteers, who had received a pharmacotherapy or physiotherapy at a department of dermatology, were the male alopecia such as senile alopecia and alopecia prematura, and alopecia areata such as multiple alopecia areata and malignant alopecia areata.
Since the symptom of the volunteers with a slight alopecia areata may be spontaneously recovered, the volunteers with a relatively small alopecic site and those with the atrophia cutis or atrophic pores which were not clinically observed were excluded in this Experiment.
The procedure of therapeutic treatment used in this Experiment is carried out according to conventional procedure:
Forty-five parts of ethanol, 2 parts of glycerine, 55 parts of refined water, and 1.0 part of 2-O-α-D-glucosyl-L-ascorbic acid or α-glucosyl bioflavonoid prepared by the method in Example of Preparation 2, 4, 6 or 8, were mixed, and the mixture was adjusted to pH 6.7 by the addition of 6N sodium hydroxide to obtain a hair restorer for external application in lotion form. When the volunteers received a physical examination, their affected sites were applied a thin coat of the hair restorer, massaged and exposed to an artificial sunlight. Furthermore, the volunteers were instructed to apply the hair restorer to the affected sites 3 times a day at home.
As control, a hair restorer for external application containing intact L-ascorbic acid or bioflavonoid in place of 2-O-α-D-glucosyl-L-ascorbic acid or α-glucosyl bioflavonoid in the above hair restorer was used.

[2] = system: α-glucosidase which had been extracted from a pig liver

| Molecule | Mean remainder of hair length (mm) 10th (day) (rabbits) | Mean remainder of hair length (mm) 20th (day) (rabbits) | Mean remainder of hair length (mm) 30th (day) (rabbits) | Therapeutic efficacy (Number of volunteers) Recovery [1] | Therapeutic efficacy (Number of volunteers) Moderate recovery [1] | Therapeutic efficacy (Number of volunteers) Not effected [1] | Therapeutic efficacy (Number of volunteers) Unfavorable [1] | cure rate (%) [1] | hydrolysis by α-glucosidase [2] |
| --- | --- | --- | --- | --- | --- | --- | --- | --- | --- |
| α-Glucosyl hesperidin | 2.3 mm | 7.4 mm | 6.7 mm | 4 Number of volunteers | 11 Number of volunteers | 5 Number of volunteers | 0 Number of volunteers | 75% | formed hesperidin and D-glucose |
| C[C@@H]1O[C@@H](O[C@H]2[C@H](Oc3cc(O)c4c(c3)O[C@H](c3ccc(O)cc3)CC4=O)O[C@H](CO)[C@@H](O)[C@@H]2O)[C@H](O)[C@H](O)[C@H]1O [Naringin, reference compound] | 0.1 mm | 0.5 mm | -0.2 mm | 0 Number of volunteers | 5 Number of volunteers | 10 Number of volunteers | 5 Number of volunteers |  |  |
| C[C@@H]1O[C@@H](OC[C@H]2O[C@@H](Oc3c(-c4ccc(O)c(O)c4)oc4cc(O)cc(O)c4c3=O)[C@H](O)[C@@H](O)[C@@H]2O)[C@H](O)[C@H](O)[C@H]1O [Rutin, 3-[[6-O-(6-deoxy-α-L-mannopyranosyl)-β-D-glucopyranosyl)]oxy-2-(3,4-dihydroxyphenyl)-5,7-dihydroxy-4H-1-benzopyran-4-one, reference compound] | 0.3 mm | 0.9 mm | 0.5 mm | 0 Number of volunteers | 4 Number of volunteers | 13 Number of volunteers | 3 Number of volunteers |  |  |
| α-Glucosyl rutin | 2.5 mm | 8.2 mm | 7.6 mm | 6 Number of volunteers | 12 Number of volunteers | 2 Number of volunteers | 0 Number of volunteers | 90% | hydrolyzed into rutin and D-glucose |
| COc1ccc(C2CC(=O)c3c(O)cc(OC4OC(COC5OC(C)C(O)C(O)C5O)C(O)C(O)C4O)cc3O2)cc1O (stereo not drawn) [Hesperidin, reference compound] | 0.1 mm | 0.5 mm | 0.2 mm | 0 Number of volunteers | 3 Number of volunteers | 12 Number of volunteers | 5 Number of volunteers |  |  |
| α-Glucosyl naringin | 2.1 mm | 6.6 mm | 6.3 mm | 4 Number of volunteers | 9 Number of volunteers | 7 Number of volunteers | 0 Number of volunteers | 65% | hydrolyzed the α-glucosyl naringin into naringin and D-glucose |
| O=C1O[C@H]([C@@H](O)CO)C(O)=C1O[C@H]1O[C@H](CO)[C@@H](O)[C@H](O)[C@H]1O [2-O-α-D-Glucosyl-L-ascorbic acid] | 2.4 mm | 6.8 mm | 6.9 mm | 6 Number of volunteers | 10 Number of volunteers | 4 Number of volunteers | 0 Number of volunteers | 80% |  |
| O=C1O[C@H]([C@@H](O)CO)C(O)=C1O [L-Ascorbic acid, L-ascorbic acid, reference compound] | 0.1 mm | -0.2 mm | 0.5 mm | 0 Number of volunteers | 3 Number of volunteers | 11 Number of volunteers | 6 Number of volunteers |  |  |
